Legend:
[1] = Specific surface area (Micromeritic Gemini VII 2390 Surface Analyzer); assay type: physicochemical
Description: Specific surface area was determined using a Micromeritic® Gemini® VII 2390 Surface Analyzer (Software: Gemini VII, version 1.03).

[2] = Filterability, electrostatic nature and flowability of the solid; assay type: physicochemical; conditions: no comparator stated

Structure (SMILES): CC(=O)c1c(C)c2cnc(Nc3ccc(N4CCNCC4)cn3)nc2n(C2CCCC2)c1=O [Form V-A, 6-acetyl-8-cyclopentyl-5-methyl-2-[[5-(1-piperazinyl)-2-pyridinyl]amino]pyrido[2,3-d]pyrimidin-7(8H)-one]
- specific surface area (SSA) [1]: greater than 2 m^2/g
- filterability, electrostatic nature, and flowability [2]: improved
